Article PMC10557102 (Pharmacology Research & Perspectives, 2023)

Legend:
CYP1A2 = target: T1, CYP1A2 (Homo sapiens, UniProt P05177); assay: Competitive; assay type: in vitro ADME
T1 sequence (P05177 1-516): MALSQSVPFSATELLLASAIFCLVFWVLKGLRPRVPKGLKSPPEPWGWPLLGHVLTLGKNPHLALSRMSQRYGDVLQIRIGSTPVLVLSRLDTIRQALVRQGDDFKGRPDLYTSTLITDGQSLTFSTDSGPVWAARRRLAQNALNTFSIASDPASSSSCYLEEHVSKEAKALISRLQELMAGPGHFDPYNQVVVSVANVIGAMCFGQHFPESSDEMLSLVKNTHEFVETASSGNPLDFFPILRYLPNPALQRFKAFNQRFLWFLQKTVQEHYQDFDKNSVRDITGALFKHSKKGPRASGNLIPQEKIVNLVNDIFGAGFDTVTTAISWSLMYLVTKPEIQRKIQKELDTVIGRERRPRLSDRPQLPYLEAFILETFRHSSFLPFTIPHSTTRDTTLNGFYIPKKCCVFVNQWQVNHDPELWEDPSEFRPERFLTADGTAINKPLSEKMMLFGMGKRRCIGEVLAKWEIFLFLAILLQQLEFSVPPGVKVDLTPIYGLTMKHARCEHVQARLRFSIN

CYP2C8 = target: T2, CYP2C8 (Homo sapiens, UniProt P10632); assay: Competitive; assay type: in vitro ADME
T2 sequence (P10632 1-490): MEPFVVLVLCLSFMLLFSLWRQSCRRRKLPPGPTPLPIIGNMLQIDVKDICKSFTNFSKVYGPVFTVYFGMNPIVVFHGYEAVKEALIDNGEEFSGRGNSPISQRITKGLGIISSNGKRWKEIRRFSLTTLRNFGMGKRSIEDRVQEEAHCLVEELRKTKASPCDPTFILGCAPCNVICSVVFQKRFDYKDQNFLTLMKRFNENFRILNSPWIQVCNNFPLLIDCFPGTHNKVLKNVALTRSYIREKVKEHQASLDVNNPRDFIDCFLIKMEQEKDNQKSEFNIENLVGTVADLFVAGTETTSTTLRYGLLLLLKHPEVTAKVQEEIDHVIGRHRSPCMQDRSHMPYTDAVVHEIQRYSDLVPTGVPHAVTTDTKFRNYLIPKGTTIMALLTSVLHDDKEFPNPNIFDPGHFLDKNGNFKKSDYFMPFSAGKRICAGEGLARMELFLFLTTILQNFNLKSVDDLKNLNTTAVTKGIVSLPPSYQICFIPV

CYP2C19 [1] = target: T3, CYP2C19 (Homo sapiens, UniProt P33261); assay: biochemical; assay type: in vitro ADME
CYP2A6 = target: T4, CYP2A6 (Homo sapiens, UniProt P11509); assay: Time-dependent; assay type: in vitro ADME; conditions: 30 min pre‐incubation with/without NADPH; coumarin 7‐hydroxylation
T4 sequence (P11509 1-494): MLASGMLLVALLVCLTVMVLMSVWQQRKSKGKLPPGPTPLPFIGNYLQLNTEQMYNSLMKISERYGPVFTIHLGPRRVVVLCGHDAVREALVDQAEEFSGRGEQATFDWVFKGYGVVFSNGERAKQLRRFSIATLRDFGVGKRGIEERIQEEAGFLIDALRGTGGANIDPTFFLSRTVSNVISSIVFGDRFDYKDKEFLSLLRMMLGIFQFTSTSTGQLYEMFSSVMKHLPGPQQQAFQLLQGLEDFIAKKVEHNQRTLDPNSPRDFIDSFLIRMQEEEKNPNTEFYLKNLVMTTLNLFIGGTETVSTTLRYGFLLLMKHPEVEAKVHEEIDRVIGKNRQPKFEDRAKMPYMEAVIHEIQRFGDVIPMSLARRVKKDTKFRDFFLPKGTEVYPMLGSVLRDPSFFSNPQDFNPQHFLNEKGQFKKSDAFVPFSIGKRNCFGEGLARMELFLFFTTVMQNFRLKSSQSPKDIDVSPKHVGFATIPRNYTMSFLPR

CYP2C9 [2] = assay: Time-dependent; assay type: in vitro ADME, human; conditions: 30 min pre‐incubation with/without NADPH; diclofenac 4′‐hydroxylation
CYP2C19 [3] = target: T3, CYP2C19; assay: in vitro; assay type: in vitro ADME
CYP2C19 [4] = target: T3, CYP2C19; assay: Covalent binding; assay type: in vitro ADME; conditions: data not shown
CYP2C9 [5] = target: CYP2C9 (Homo sapiens, UniProt P11712); assay: Covalent binding; assay type: in vitro ADME
CYP3A4 = CYP3A4 (Homo sapiens, UniProt P08684); assay: Covalent binding; assay type: in vitro ADME
[6] = cited from earlier work
healthy subjects = assay: Safety and tolerability in the clinical study

T3 sequence (P33261 whole entry): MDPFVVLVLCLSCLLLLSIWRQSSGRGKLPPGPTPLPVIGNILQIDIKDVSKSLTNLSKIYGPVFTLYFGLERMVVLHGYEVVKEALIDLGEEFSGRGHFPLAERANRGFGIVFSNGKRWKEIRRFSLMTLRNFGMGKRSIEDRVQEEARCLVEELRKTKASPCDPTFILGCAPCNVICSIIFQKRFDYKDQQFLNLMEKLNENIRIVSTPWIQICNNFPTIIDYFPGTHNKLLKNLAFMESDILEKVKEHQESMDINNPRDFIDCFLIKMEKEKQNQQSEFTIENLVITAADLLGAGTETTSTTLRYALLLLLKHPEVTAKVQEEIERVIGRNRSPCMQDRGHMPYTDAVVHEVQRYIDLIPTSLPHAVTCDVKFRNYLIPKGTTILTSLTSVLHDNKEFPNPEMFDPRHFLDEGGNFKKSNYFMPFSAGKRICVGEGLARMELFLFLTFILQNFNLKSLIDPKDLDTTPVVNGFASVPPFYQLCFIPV
Chain of CYP2C9 (Homo sapiens, UniProt P11712) (P11712 whole entry): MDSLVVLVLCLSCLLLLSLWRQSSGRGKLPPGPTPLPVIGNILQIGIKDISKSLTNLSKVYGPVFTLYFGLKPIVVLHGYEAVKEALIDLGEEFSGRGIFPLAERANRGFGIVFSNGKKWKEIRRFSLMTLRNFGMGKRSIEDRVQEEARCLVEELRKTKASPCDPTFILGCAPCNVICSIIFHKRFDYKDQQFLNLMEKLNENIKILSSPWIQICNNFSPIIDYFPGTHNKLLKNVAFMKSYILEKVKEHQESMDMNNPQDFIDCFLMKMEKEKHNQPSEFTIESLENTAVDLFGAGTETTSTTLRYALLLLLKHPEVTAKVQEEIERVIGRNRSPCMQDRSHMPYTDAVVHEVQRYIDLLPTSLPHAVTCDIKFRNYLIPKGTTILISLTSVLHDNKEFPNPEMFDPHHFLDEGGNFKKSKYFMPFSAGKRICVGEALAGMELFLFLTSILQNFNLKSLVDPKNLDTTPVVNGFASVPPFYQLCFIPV
Chain of CYP3A4 (P08684 whole entry): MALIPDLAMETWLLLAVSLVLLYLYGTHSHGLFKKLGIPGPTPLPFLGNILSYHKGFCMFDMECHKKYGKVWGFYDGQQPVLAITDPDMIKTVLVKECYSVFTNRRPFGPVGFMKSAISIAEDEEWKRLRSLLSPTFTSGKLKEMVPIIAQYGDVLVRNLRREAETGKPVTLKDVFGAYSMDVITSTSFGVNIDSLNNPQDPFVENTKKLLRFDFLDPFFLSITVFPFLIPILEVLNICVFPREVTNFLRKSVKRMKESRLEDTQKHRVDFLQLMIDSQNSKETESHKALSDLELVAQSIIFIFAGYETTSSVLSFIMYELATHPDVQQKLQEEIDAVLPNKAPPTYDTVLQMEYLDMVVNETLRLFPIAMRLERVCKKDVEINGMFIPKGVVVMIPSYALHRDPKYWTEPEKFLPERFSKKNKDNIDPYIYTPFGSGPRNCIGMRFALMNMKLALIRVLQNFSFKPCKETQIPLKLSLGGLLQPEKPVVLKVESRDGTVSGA

## Cc1ccc(C(=O)N2CCOC[C@H]2Cc2cccc(-n3nccn3)c2)c(-n2nccn2)c1 [nivasorexant]
CYP1A2
  IC50: > 100 µM
CYP2C8
  IC50: 25 µM
CYP2C19 [1]
  IC50: 1.6 µM
CYP2A6
  IC50 shift: none
CYP2C9 [2]
  IC50 shift: no effect and no pre‐incubation effect and none
CYP2C19 [3]; human, recombinant enzyme
  IC50 shift at 30 min: 67
CYP2C19 [3]; recombinant CYP2C19
  K I (inhibition constant of the CYP enzyme inactivation): 4.2 µM
  k inact (rate of enzyme inactivation): 0.079 min⁻¹
CYP2C19 [4]
  covalent binding (in words): covalently binds
CYP2C9 [5]
  covalent binding (in words): covalent binding
CYP3A4
  covalent binding (in words): covalent binding
[6]; across dose levels, healthy subjects
  apparent mean terminal half‐life (t ½): 3.3 to 6.5 h
[6]; multiple oral administration
  dose proportionality of AUCτ: dose proportional
  dose proportionality of C max: less than dose proportional
Healthy subjects; Day 1 to Day 15, healthy subjects
  safety and tolerability (in words): safe and well tolerated
Healthy subjects; Treatment B: cocktail + initial 100 mg nivasorexant, Day 8
  somnolence, subjects (%): 1 (4.5%) subjects (%)
Healthy subjects; Treatment C: nivasorexant 100 mg b.i.d. alone, Day 9–14
  somnolence, subjects (%): 2 (9.1%) subjects (%)
Healthy subjects; Treatment D: cocktail + nivasorexant at steady state, Day 15
  somnolence, subjects (%): 5 (23.8%) subjects (%)
